Patent US8883821B2, “Substituted pyrazolo[3,4-b]pyridines as medicaments” (Pierre Fabre Medicament, priority 2011, dated 2014)

System: human anaplastic large-cell lymphoma (ALCL) tumor model
Test: Antitumor activity in vivo, ALCL tumors grafted subcutaneously in mice, oral daily dosing
Details: mice with subcutaneous ALCL tumors, daily schedule, animals weighed
Method: Pharmacological Activity In Vivo
The compounds were administered orally at various doses on a daily schedule to mice with ALCL tumors grafted subcutaneously. Tumor size was measured regularly during the study and the animals were weighed several times per week in order to identify any adverse effects. A compound is declared active if it induces inhibition of ALCL tumor growth by at least 58%.

CN1CCN(c2ccc(C(=O)Nc3n[nH]c4ncc(Sc5cc(F)cc(F)c5)cc34)c(NC3CCOCC3)c2)CC1 [Example 30, N-(5-(3,5-difluorophenylthio)-1-H-pyrazolo[3,4-b]pyridine-3-yl)-4-(4-methylpiperazine-1-yl)-2-(tetrahydro-2H-pyran-4-ylamino)benzamide]
adverse effects / tolerance in vivo: no adverse effects

CN1CCN(c2ccc(C(=O)Nc3n[nH]c4ncc(Cc5cc(F)cc(F)c5)cc34)c(NC3CCOCC3)c2)CC1 [Example 30-9, N-(5-(3,5-difluorobenzyl)-1H-pyrazolo[3,4-b]pyridin-3-yl)-4-(4-methylpiperazin-1-yl)-2-(tetrahydro-2H-pyran-4-ylamino)benzamide]
adverse effects / tolerance in vivo: no adverse effects
